Experimental data published in the supplement of paper PMC10307832.

How the values were obtained:
Experiment in all cases: relative viability (nuclei count vs DMSO), 5 days (fraction); higher = more cells survive
BAM7 + OSI-027 = compound: CCOC1=CC=CC=C1N=NC2=C(NN(C2=O)C3=NC(=CS3)C4=CC=CC=C4)C [BAM7] + COc1cccc2cc(-c3nc([C@H]4CC[C@H](C(=O)O)CC4)n4ncnc(N)c34)[nH]c12 [OSI-027] (partner 0.5 µM)
Summary of the method: (§1)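 Five library-drug doses in √10 steps were combined with a fixed anchor-drug dose, or a single drug was given alone, by pin tool to lung cancer cell lines in 1536-well plates the day after seeding. Nuclei were stained and counted after 5 days. Relative viability is the nuclei count in treated wells over that in vehicle wells, taken as the median of duplicate plates.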

[1] = compound: CCn1c(-c2nonc2N)nc2c(C#CC(C)(C)O)ncc(OC[C@H]3CCCNC3)c21 + CCNC(=O)c1noc(-c2cc(C(C)C)c(O)cc2O)c1-c1ccc(CN2CCOCC2)cc1 [Luminespib] (partner 0.01 µM)
Summary of the method: as §1

[2] = compound: CCn1c(-c2nonc2N)nc2c(C#CC(C)(C)O)ncc(OC[C@H]3CCCNC3)c21 + CS(=O)(=O)CCNCc1ccc(-c2ccc3ncnc(Nc4ccc(OCc5cccc(F)c5)c(Cl)c4)c3c2)o1 [Lapatinib] (partner 2 µM)
Summary of the method: as §1

[3] = compound: CCn1c(-c2nonc2N)nc2c(C#CC(C)(C)O)ncc(OC[C@H]3CCCNC3)c21 + NC(=O)Nc1cc(-c2cccc(F)c2)sc1C(=O)N[C@H]1CCCNC1 [AZD7762] (partner 0.2 µM)
Summary of the method: as §1

Cell Line | relative viability (BAM7 + OSI-027; first compound 0.5 µM) | relative viability (BAM7 + OSI-027; first compound 5 µM) | relative viability (BAM7 + OSI-027; first compound 15.81 µM) | relative viability (BAM7 + OSI-027; first compound 50 µM) | relative viability ([1]; first compound 0.01 µM) | relative viability ([1]; first compound 0.03162 µM) | relative viability ([1]; first compound 0.1 µM) | relative viability ([1]; first compound 0.3162 µM) | relative viability ([1]; first compound 1 µM) | relative viability ([2]; first compound 0.01 µM) | relative viability ([2]; first compound 0.03162 µM) | relative viability ([2]; first compound 0.1 µM) | relative viability ([2]; first compound 0.3162 µM) | relative viability ([2]; first compound 1 µM) | relative viability ([3]; first compound 0.01 µM) | relative viability ([3]; first compound 0.03162 µM) | relative viability ([3]; first compound 0.1 µM) | relative viability ([3]; first compound 0.3162 µM) | relative viability ([3]; first compound 1 µM)
HCC-15 | 0.727 | 0.696 | 0.7 | 0.758 | 0.291 | 0.26 | 0.468 | 0.345 | 0.268 | 0.868 | 0.824 | 0.865 | 0.808 | 0.795 | 1.2 | 1.26 | 1.17 | 1.13 | 1.37
HCC-44 | 0.534 | 0.61 | 0.476 | 0.505 | – | – | 0.994 | 0.906 | 1.21 | 0.93 | 0.975 | 1.01 | 0.989 | 1.09 | 1.03 | 0.946 | 0.997 | 1.12 | 1.08
HCC-827 | 0.798 | 0.794 | 0.775 | 0.822 | 0.533 | 0.895 | 0.729 | 0.476 | 0.633 | 0.175 | 0.219 | 0.191 | 0.173 | 0.217 | 0.233 | 0.256 | 0.273 | 0.199 | 0.196
HOP-62 | 0.888 | 0.87 | 0.808 | 0.92 | 0.903 | 0.878 | 0.913 | 0.876 | 0.967 | 1.11 | 1.05 | 1 | 0.993 | 0.87 | 0.761 | 0.677 | 0.732 | 0.577 | 0.516
LC-2-ad | 0.918 | 0.865 | 0.8 | 0.902 | 0.964 | 0.967 | 1.1 | 1.04 | 0.974 | 0.993 | 1.01 | 0.906 | 0.975 | 0.977 | 0.86 | 0.874 | 0.885 | 0.839 | 0.867
LCLC-97TM1 | 0.699 | 0.469 | 0.505 | 0.677 | 0.707 | 0.914 | 0.609 | 0.658 | 0.741 | – | 0.854 | 1.06 | 0.663 | 1.27 | 0.279 | 0.269 | 0.206 | 0.292 | 0.294
LK-2 | 0.206 | 0.205 | 0.225 | 0.218 | 0.168 | 0.177 | – | – | 0.14 | 0.998 | 1.01 | 0.668 | 0.697 | 0.926 | 0.457 | 0.446 | 0.291 | 0.339 | 0.303
LOU-NH91 | 0.717 | 0.729 | 0.729 | 0.801 | 0.34 | 0.365 | 0.374 | 0.319 | 0.316 | 0.802 | 0.681 | 0.717 | 0.652 | 0.618 | 0.78 | 0.693 | 0.755 | 0.689 | 0.68
LU99A | 0.256 | 0.29 | 0.347 | 0.322 | 0.254 | 0.21 | 0.239 | 0.307 | 0.248 | 0.874 | 1.07 | 0.869 | 0.865 | 0.818 | 0.345 | 0.363 | 0.379 | 0.297 | 0.378
